Measurements taken from ChEMBL document CHEMBL3392978 (Eur J Med Chem, 2015).

What was measured:
[1] = test system: HepG2; assay: Growth inhibition of human HepG2 cells at 10 uM after 72 hrs by MTT assay; type: functional; conditions: HepG2, 72 h, read-out: GI
[2] = test system: MDA-MB-453; assay: Growth inhibition of human MDA-MB-453 cells at 10 uM after 72 hrs by MTT assay; type: functional; conditions: MDA-MB-453, 72 h, read-out: GI
[3] = test system: SW480; assay: Growth inhibition of human SW480 cells at 10 uM after 72 hrs by MTT assay; type: functional; conditions: SW480, 72 h, read-out: GI
[4] = test system: A-375; assay: Growth inhibition of human A375 cells at 10 uM after 72 hrs by MTT assay; type: functional; conditions: A-375, 72 h, read-out: GI
[5] = test system: NCI-H522; assay: Growth inhibition of human NCI-H522 cells at 10 uM after 72 hrs by MTT assay; type: functional; conditions: NCI-H522, 72 h, read-out: GI
[6] = test system: MCF7; assay: Growth inhibition of human MCF7 cells at 10 uM after 72 hrs by MTT assay; type: functional; conditions: MCF7, 72 h, read-out: GI
[7] = test system: HepG2; assay: Cytotoxicity against human HepG2 cells assessed as reduction in cell viability after 72 hrs by MTT assay; type: functional, cell-based; conditions: HepG2, 72 h
[8] = test system: MDA-MB-453; assay: Cytotoxicity against human MDA-MB-453 cells assessed as reduction in cell viability after 72 hrs by MTT assay; type: functional, cell-based; conditions: MDA-MB-453, 72 h
[9] = test system: SW480; assay: Cytotoxicity against human SW480 cells assessed as reduction in cell viability after 72 hrs by MTT assay; type: functional, cell-based; conditions: SW480, 72 h
[10] = test system: A-375; assay: Cytotoxicity against human A375 cells assessed as reduction in cell viability after 72 hrs by MTT assay; type: functional, cell-based; conditions: A-375, 72 h
[11] = molecular target: Serine/threonine-protein kinase B-raf (Homo sapiens, UniProt P15056); assay: Inhibition of BRAF (unknown origin) incubated for 15 mins by fluorescence based assay
Sequence of Serine/threonine-protein kinase B-raf (P15056 whole entry): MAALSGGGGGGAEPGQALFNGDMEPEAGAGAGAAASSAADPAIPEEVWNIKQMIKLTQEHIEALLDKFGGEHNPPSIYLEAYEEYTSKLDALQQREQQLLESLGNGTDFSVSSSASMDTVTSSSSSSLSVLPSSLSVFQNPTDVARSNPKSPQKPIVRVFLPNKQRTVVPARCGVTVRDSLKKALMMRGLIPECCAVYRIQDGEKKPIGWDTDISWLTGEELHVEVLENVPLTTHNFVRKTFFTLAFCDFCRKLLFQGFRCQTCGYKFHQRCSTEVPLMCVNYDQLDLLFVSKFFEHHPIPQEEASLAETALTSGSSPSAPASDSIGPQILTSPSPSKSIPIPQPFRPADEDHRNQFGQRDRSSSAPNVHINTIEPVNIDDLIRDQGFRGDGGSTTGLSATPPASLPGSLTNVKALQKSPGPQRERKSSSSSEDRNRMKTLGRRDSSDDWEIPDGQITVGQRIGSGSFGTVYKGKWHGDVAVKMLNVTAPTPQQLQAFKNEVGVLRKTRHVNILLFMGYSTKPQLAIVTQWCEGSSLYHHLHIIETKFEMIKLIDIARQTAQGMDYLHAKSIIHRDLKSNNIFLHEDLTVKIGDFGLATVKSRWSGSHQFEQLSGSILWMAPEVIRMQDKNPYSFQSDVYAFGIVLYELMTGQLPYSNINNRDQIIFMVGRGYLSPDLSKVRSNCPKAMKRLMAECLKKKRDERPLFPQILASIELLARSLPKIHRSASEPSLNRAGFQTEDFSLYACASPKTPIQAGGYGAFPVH

| SMILES | inhibition of growth at 10 µM [1] [%] | inhibition of growth at 10 µM [2] [%] | inhibition of growth at 10 µM [3] [%] | inhibition of growth at 10 µM [4] [%] | inhibition of growth at 10 µM [5] [%] | inhibition of growth at 10 µM [6] [%] | IC50 [7] [µM] | IC50 [8] [µM] | IC50 [9] [µM] | IC50 [10] [µM] | IC50 [11] [µM] |
| --- | --- | --- | --- | --- | --- | --- | --- | --- | --- | --- | --- |
| O=C(Nc1ccc(Cl)c(C(=O)Nc2ccc(-c3ncc[nH]3)nc2)c1)c1ccc(Cl)c(Cl)c1 | 57 | 45.3 | 47.2 | 46.1 | -21.1 | 35.5 | 15.2 | 11.4 | 9.34 | 9.39 | – |
| O=C(Nc1ccc(Cl)c(C(=O)Nc2ccc(-c3ncc[nH]3)nc2)c1)c1ccc(Cl)c(Br)c1 | 35.5 | 15.1 | 12.4 | 38.4 | -15.4 | 29.1 | – | – | – | – | – |
| COc1ccc(C(=O)Nc2ccc(C)c(C(=O)Nc3ccc(-c4ncc[nH]4)nc3)c2)cc1 | 18.7 | 23.5 | 26.5 | 18.7 | 27.1 | 36 | – | – | – | – | 40.4 |
| O=C(Nc1ccc(Cl)c(C(=O)Nc2ccc(-c3ncc[nH]3)nc2)c1)c1ccc(F)cc1 | -1.3 | 21.5 | 14.9 | 30.1 | -8.8 | 33.4 | – | – | – | – | – |
| O=C(Nc1cccc(C(F)(F)F)c1)c1ccc(Cl)c(C(=O)Nc2ccc(-c3ncc[nH]3)nc2)c1 | 29.9 | 19.7 | 18.9 | 44.1 | -18 | 25.9 | – | – | – | – | – |
| Cc1ccc(NC(=O)c2ccc(F)cc2)cc1C(=O)Nc1ccc(-c2ncc[nH]2)nc1 | 25 | 22 | 10.1 | 24.9 | 6.3 | 28.8 | – | – | – | – | – |
| Cc1ccc(NC(=O)c2ccc(Cl)cc2)cc1C(=O)Nc1ccc(-c2ncc[nH]2)nc1 | 12.1 | 21.4 | 17.7 | 23.9 | 6.4 | 32.4 | – | – | – | – | – |
| COc1cccc(C(=O)Nc2ccc(Cl)c(C(=O)Nc3ccc(-c4ncc[nH]4)nc3)c2)c1 | 2.6 | 19.4 | 17.6 | 34.9 | -2.9 | 29.6 | – | – | – | – | – |
| Cc1cc(C(=O)Nc2ccc(C)c(C(=O)Nc3ccc(-c4ncc[nH]4)nc3)c2)ccc1Cl | 32 | 27.7 | 21.4 | 37.3 | 12.6 | 36.2 | – | – | – | – | – |
| O=C(Nc1ccc(Cl)c(C(=O)Nc2ccc(-c3ncc[nH]3)nc2)c1)c1cccc(Cl)c1 | 2.9 | 10.7 | 15.5 | 32.4 | -1.8 | 29.8 | – | – | – | – | – |
| O=C(Nc1cccc(Cl)c1)c1ccc(Cl)c(C(=O)Nc2ccc(-c3ncc[nH]3)nc2)c1 | 19.4 | 11.6 | 5.8 | 26.1 | -16.2 | 26 | – | – | – | – | – |
| Cc1cccc(C(=O)Nc2ccc(Cl)c(C(=O)Nc3ccc(-c4ncc[nH]4)nc3)c2)c1 | 24.8 | 23.6 | 30.8 | 40.8 | 5.3 | 34 | – | – | – | – | – |
| Cc1ccc(NC(=O)c2ccc(Br)cc2)cc1C(=O)Nc1ccc(-c2ncc[nH]2)nc1 | 14.8 | 18.9 | 23.9 | 30.1 | 13.5 | 31.9 | – | – | – | – | – |
| Cc1ccc(NC(=O)c2cccc(F)c2)cc1C(=O)Nc1ccc(-c2ncc[nH]2)nc1 | 2.1 | 14.9 | 10.4 | 27.9 | 8.5 | 29.2 | – | – | – | – | – |
